One compound from patent publication US20230277483A1, “COMPOSITIONS AND METHODS TO TREAT INFLAMMATION” (University of Iowa Research Foundation, priority 2022, published 2023) can be followed below.

Data set [1] concerns Pg. The experiment in a line: Pg attachment (early biofilm formation, colonization) on culture plates. The format is cell-based, Porphyromonas gingivalis. Here is the method: (§1) Sg metabolites promote commensal bacterial proliferation and inhibit periodontopathogenic bacterial proliferation and colonization. Commensal bacteria, Sg, S. sanguinis (Ss, ATCC10556), S. mitis (Sm, ATCC49456) and S. oralis (So, ATCC 35037) were cultured in BHI medium. In addition, pathogenic bacteria, Pg was cultured using BHI and Tf (ATCC43037), and Td (ATCC 35405) were grown in Thioglycollate medium with vitamin K and Hemin in 90% N2, 5% H2, 5% CO2. The Sg metabolites were diluted using DMEM and added to the bacteria with the similar OD600 value. The same amount of DMEM was used as a control. During the exponential growth of bacteria, the OD600 value was measured to determine the proliferation. […] In addition, to determine the function of Sg metabolites on Pg colonization, Pg were inoculated in 24-well plates containing BHI or BHI supplemented with DMEM or Sg metabolites. […]
(§2) HCA promotes proliferation of health related bacteria and inhibits proliferation and attachment of periodontopathogenic bacteria. […] The composition of the microbiomes was determined by amplifying the V3 and V4 regions of the 16S rRNA genes. Raw data in FASTQ format were filtered and denoised using DADA2 (Divisive Amplicon Denoising Algorithm) to generate amplicon sequence variants (ASV) or operational taxonomical units (OTUs) that were then analyzed by QIIME2.

The subject of data set [2] is Td (ATCC 35405). The experiment in a line: Bacterial proliferation measured by OD600. The format is cell-based, Treponema denticola. Particulars: HCA at 0.1 μM; anaerobic culture. As to the method:
as §1, §2

For data set [3], the system named is S. mitis (Sm, ATCC49456). The experiment in a line: Bacterial proliferation (growth profile). The format is cell-based, Streptococcus mitis. Particulars: HCA at 0.1 μM; aerobic culture. As to the method: as §1, §2
In data set [4] the test system is primary human gingival fibroblasts (HGF). The experiment in a line: MTT toxicity assay. The format is cell-based. The conditions noted are these: HCA from 0.1 to 50 μM; 24 and 48 hours. (Formazan colour is commonly taken as a measure of viable cells.)
Data set [5] has as its system oral and fecal microbiomes of obese mice. The experiment in a line: Oral and fecal microbiome composition (16S rRNA) in DIO mice. The conditions noted are these: 100 μl of HCA at 0.2 and 0.5 μM I.P. three times a week for 3 weeks. The format is in vivo, mouse. As to the method:
HCA promotes proliferation of health related bacteria and inhibits proliferation and attachment of periodontopathogenic bacteria. Promoting the growth of health-related commensal bacteria while inhibiting proliferation and attachment of pathogenic bacteria may be effective at preventing or treating periodontal inflammation. To determine if HCA has an effect on the growth properties of commensal bacteria and periodontopathogens, HCA at different concentrations was added to aerobic culture of S. mitis and S. oralis and anaerobic culture of T. denticola as described in our published manuscript (see detail in Shu et al, Journal of Periodontology, 2022). FIGS. 18A-C summarize the functions of HCA on the proliferation of specific commensal and pathogenic bacteria. […] Furthermore, the function of HCA on P. gingivalis attachment, a key parameter of adhesion and biofilm formation by periodontopathogenic bacteria, was investigated. […] The composition of the microbiomes was determined by amplifying the V3 and V4 regions of the 16S rRNA genes. Raw data in FASTQ format were filtered and denoised using DADA2 (Divisive Amplicon Denoising Algorithm) to generate amplicon sequence variants (ASV) or operational taxonomical units (OTUs) that were then analyzed by QIIME2.

`O=C(O)CCCCCO` [HCA, 6-hydroxycaproic acid]: the “attachment of P. gingivalis” value in data set [1] (HCA at 0.01 μM) is on record as “less of an effect”; in data set [1] (HCA at 0.05 μM vs untreated control, optical density), “significantly reduced”. Further, the “proliferation of T. denticola” value in data set [2] was “significantly inhibits”. Further, the “proliferation of S. mitis” value in data set [3] was “improve proliferation”. In addition, in data set [4], the “toxicity (MTT assay)” value is reported as “No toxicity”. In addition, the “effect on composition of the microbiomes” value in data set [5] is given as “dose dependent”. Also, the “representation of Streptococcus danieliae and other unclassified streptococci in the oral microbiome” value in data set [5] was “large increases”.
